# Measured values as given in patent US20070243182A1, “Use of Carboxypeptidease G for Combating Antifolate Toxicity” (Protherics Medicines Development Limited, priority 2004, published 2007).
# Like-named read-outs stand apart in the source and are kept apart here.
# How the values were obtained:
# CPG2 [1] = target: T1, CPG2 (Pseudomonas sp., UniProt P06621); settings: substrate of CPG2; Sherwood et al (1985); cited from earlier work
# CPG2 [2] = target: T1, CPG2; format: biochemical, Pseudomonas sp. strain RS-16
# Description: (§1) A stock solution of 10 mM Tomudex in 100 mM Tris-HCl pH7.3 was prepared and used to prepare a series of dilutions from 0-100 μM in 100 mM Tris-HCl pH 7.3. 990 μl of each dilution was placed in a quartz cuvette and pre-warmed to 37° C. 10 μl of enzyme solution was added to initiate the reaction and the progress of the reaction was followed by measuring the rate of change in absorbance at 356 nm.
# Measurement of the rate of reaction at a range of substrate concentrations, from 1-100 μM allows the Km and kcat for the enzyme to be determined using appropriate computer software such as “Enzfitter” (Biosoft; Cambridge, UK).
# as §1, with “LY309887” for “Tomudex”, “is” for “was”, “pre-warned” for “pre-warmed”, “a suitable wavelength. […] Measurement of the rate of reaction at a range of substrate concentrations, from 1-100 μM allows the Km and kcat for the enzyme to be determined using Enzfitter computer software.” for “356 nm.”
# as §1, with “AG2034” for “Tomudex”, “is” for “was”, “a suitable wavelength. […] Measurement of the rate of reaction at a range of substrate concentrations, from 1-100 μM allows the Km and kcat for the enzyme to be determined using Enzfitter computer software.” for “356 nm.”
# as §1, with “AG2037” for “Tomudex”, “is” for “was”, “a suitable wavelength. […] Measurement of the rate of reaction at a range of substrate concentrations, from 1-100 μM allows the Km and kcat for the enzyme to be determined using Enzfitter computer software.” for “356 nm.”
# [3] = 3-weekly schedule, paediatric population; cited from earlier work
# bone marrow cells = settings: MTX 100 μM, leucovorin calcium 1,000 μM; cited from earlier work
# [4] = Rescue of Tomudex toxicity in a patient by administration of CPG2 (with or without thymidine); format: in vivo; settings: thymidine given together with CPG2 to a patient with toxic plasma levels of Tomudex
# Description: A patient who has been administered Tomudex and has toxic plasma levels of Tomudex is administered a dose of 50 Units per kg body weight of CPG2 by intravenous injection over a period of about 5 minutes.
# A patient who has been administered Tomudex and has toxic plasma levels of Tomudex is administered a dose of 50 Units per kg body weight of CPG2 by intravenous injection over a period of about 5 minutes and is also administered thymidine.
# [5] = example in present tense, no values given
# [6] = substrate of CPG2, spectrophotometric assay, 100 mM Tris-HCl pH 7.3, 37° C., 356 nm
# T1 sequence (P06621 23-415): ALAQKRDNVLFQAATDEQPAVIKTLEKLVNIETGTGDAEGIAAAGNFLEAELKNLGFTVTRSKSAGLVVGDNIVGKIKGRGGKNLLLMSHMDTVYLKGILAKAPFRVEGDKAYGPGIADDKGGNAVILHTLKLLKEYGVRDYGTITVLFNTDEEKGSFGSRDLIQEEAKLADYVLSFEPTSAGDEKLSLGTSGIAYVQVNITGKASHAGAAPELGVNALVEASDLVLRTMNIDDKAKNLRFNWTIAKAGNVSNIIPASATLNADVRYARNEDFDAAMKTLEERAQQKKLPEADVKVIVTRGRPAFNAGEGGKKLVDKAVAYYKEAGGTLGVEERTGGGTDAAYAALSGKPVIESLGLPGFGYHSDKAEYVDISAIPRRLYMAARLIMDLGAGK
structure (smiles),measurement,setting,value
"Nc1nc2c(c(=O)[nH]1)N(C=O)C(CNc1ccc(C(=O)N[C@@H](CCC(=O)O)C(=O)O)cc1)CN2 (some centres unmarked) [5-formyl TIE, 5-formyl tetrahydrofolic acid]",Km,CPG2 [1],120 µM
CN1c2c(nc(N)[nH]c2=O)NCC1CNc1ccc(C(=O)N[C@@H](CCC(=O)O)C(=O)O)cc1 (some centres unmarked) [5-methyl THF],Km,CPG2 [1],34 µM
Cc1cc(C(=O)N[C@@H](CCC(=O)O)C(=O)O)sc1CC[C@@H]1CNc2nc(N)[nH]c(=O)c2C1 [AG2037],substrate of CPG2 (contacted with CPG2 in vitro),CPG2 [2]; [5],found to be a substrate of CPG2
Nc1nc2c(c(=O)[nH]1)C[C@@H](CCc1ccc(C(=O)N[C@@H](CCC(=O)O)C(=O)O)s1)CN2 [LY309887],substrate of CPG2 (contacted with CPG2 in vitro),CPG2 [2]; [5],found to be a substrate of CPG2
Cc1nc2ccc(CN(C)c3ccc(C(=O)N[C@@H](CCC(=O)O)C(=O)O)s3)cc2c(=O)[nH]1 [Tomudex],substrate of CPG2 (contacted with CPG2 in vitro),CPG2 [2],found to a substrate of CPG2
same,Km,CPG2 [2]; [6],7.8 µM
same,kcat,CPG2 [2]; [6],24 s⁻¹
same,maximum tolerated dose,[3],6 mg/m^2
Nc1nc2ncc(CNc3ccc(C(=O)N[C@@H](CCC(=O)O)C(=O)O)cc3)nc2c(=O)[nH]1 [folate],Km,CPG2 [1],4 µM
"Nc1nc(=O)c2c([nH]1)NCC(CNc1ccc(C(=O)N[C@@H](CCC(=O)[O-])C(=O)[O-])cc1)N2C=O.[Ca+2] (some centres unmarked) [leucovorin calcium, calcium salt of 5-formyl tetrahydrofolic acid]",protection of bone marrow cells from MTX toxicity,bone marrow cells,unable to protect bone marrow cells from toxicity
Cc1cn([C@H]2C[C@H](O)[C@@H](CO)O2)c(=O)[nH]c1=O [thymidine],rescue of cellular toxicity associated with Tomudex,[4],rescues the cellular toxicity associated with the Tomudex
